In PMC12133000 (PLOS One, 2025):
Like-named read-outs stand apart in the source and are kept apart here.

Assay: Pharmacokinetics of rivaroxaban in rats after avitinib or gefitinib pretreatment
Format: in vivo, Sprague–Dawley (SD) rats
Conditions: male, Sprague-Dawley, rat, plasma, oral
Description: Eighteen male Sprague–Dawley (SD) rats weighing 300 ± 20 g were provided by the Experimental Animal Center of Wenzhou Medical University (Wenzhou, China) and kept under controlled conditions at a temperature of 23 ± 2 °C, relative humidity of 50 ± 10%, and 12 h light–dark cycle. Eighteen male SD rats were randomly assigned to three groups: avitinib, gefitinib, and control, with six rats per group. Prior to the experiment, the rats were not administered any other medications and fasted for 12 h. The experimental procedures and protocols adhered to Animal Ethics standards and were approved by the Animal Care and Use Committee of Wenzhou Medical University (approval no. wydw2019–650). All rats were anesthetized with sodium pentobarbital (40mg/kg, i.p) to relieve pain. The rats were killed through cervical dislocation.
Prior to the experiment in vivo, the six rats in the avitinib group were administered 30 mg/kg avitinib and 0.5% sodium carboxymethyl cellulose (CMC-Na) solution by gavage daily for 7 d. […] The supernatant was collected and stored at −80 °C. After thawing, 50 μL of plasma was extracted; 100 μL of acetonitrile solution containing midazolam (200 ng/mL) was then added to induce protein precipitation. After vortexing for 30 s and centrifuging at 13,000 rpm for 5 min, the […].
All assays were performed in triplicate, and the results are expressed as mean ± standard deviation. DAS software v. […] SPSS v. 25.0 (IBM, NY, USA) was used for data processing. Student’s t-tests were used to detect differences between groups. Differences with p < 0.05 were considered statistically significant.

O=C(NC[C@H]1CN(c2ccc(N3CCOCC3=O)cc2)C(=O)O1)c1ccc(Cl)s1 [rivaroxaban, Rivaroxaban]
concentration at 6 h (10 mg/kg, rivaroxaban ng/ml mean, control (rivaroxaban alone) group, mean of rats 13-18, time 6): 141 ng/mL | concentration at 8 h (10 mg/kg, rivaroxaban ng/ml mean, control (rivaroxaban alone) group, mean of rats 13-18, time 8): 93 ng/mL | concentration at 12 h (10 mg/kg, rivaroxaban ng/ml mean, control (rivaroxaban alone) group, mean of rats 13-18, time 12): 76.8 ng/mL | concentration at 0.25 h (10 mg/kg, rivaroxaban ng/ml, 对照 (control, rivaroxaban alone) group, individual rats 13-18, time 0.25): 305 ng/mL | concentration at 0.5 h (10 mg/kg, rivaroxaban ng/ml, 对照 (control, rivaroxaban alone) group, individual rats 13-18, time 0.5): 434 ng/mL | concentration at 1 h (10 mg/kg, rivaroxaban ng/ml, 对照 (control, rivaroxaban alone) group, individual rats 13-18, time 1): 458 ng/mL | concentration at 4 h (10 mg/kg, rivaroxaban ng/ml, 对照 (control, rivaroxaban alone) group, individual rats 13-18, time 4): 190 ng/mL | concentration at 12 h (gefitinib group, Mean, read-out: C_last): 2070 ng/mL | concentration at 5 min (plasma concentration of rivaroxaban, 5 min, avitinib group, Mean): 284 ng/mL | concentration at 5 min (plasma concentration of rivaroxaban, 5 min, avitinib group, single rats No1-No6): 237 ng/mL | concentration at 5 min (plasma concentration of rivaroxaban, 5 min, gefitinib group, Mean): 626 ng/mL | concentration at 0.25 h (plasma concentration of rivaroxaban, 0.25 h, avitinib group, Mean): 588 ng/mL | concentration at 0.25 h (plasma concentration of rivaroxaban, 0.25 h, gefitinib group, Mean): 1740 ng/mL | concentration at 0.25 h (plasma concentration of rivaroxaban, 0.25 h, gefitinib group, single rats No1-No6): 1690 ng/mL | concentration at 0.5 h (plasma concentration of rivaroxaban, 0.5 h, avitinib group, Mean): 1090 ng/mL | concentration at 0.5 h (plasma concentration of rivaroxaban, 0.5 h, gefitinib group, Mean): 3670 ng/mL | concentration at 0.5 h (plasma concentration of rivaroxaban, 0.5 h, gefitinib group, single rats No1-No6): 4080 ng/mL | concentration at 1 h (plasma concentration of rivaroxaban, 1 h, avitinib group, Mean): 1730 ng/mL | concentration at 1 h (plasma concentration of rivaroxaban, 1 h, gefitinib group, Mean): 5580 ng/mL | concentration at 1 h (plasma concentration of rivaroxaban, 1 h, gefitinib group, single rats No1-No6): 6110 ng/mL | concentration at 2 h (plasma concentration of rivaroxaban, 2 h, avitinib group, Mean): 1650 ng/mL | concentration at 2 h (plasma concentration of rivaroxaban, 2 h, gefitinib group, Mean): 7180 ng/mL | concentration at 3 h (plasma concentration of rivaroxaban, 3 h, avitinib group, Mean): 1390 ng/mL | concentration at 3 h (plasma concentration of rivaroxaban, 3 h, gefitinib group, Mean): 7690 ng/mL | concentration at 3 h (plasma concentration of rivaroxaban, 3 h, gefitinib group, single rats No1-No6): 6480 ng/mL | concentration at 4 h (plasma concentration of rivaroxaban, 4 h, avitinib group, Mean): 1010 ng/mL | concentration at 4 h (plasma concentration of rivaroxaban, 4 h, gefitinib group, Mean): 7800 ng/mL | concentration at 4 h (plasma concentration of rivaroxaban, 4 h, gefitinib group, single rats No1-No6): 6780 ng/mL | concentration at 6 h (plasma concentration of rivaroxaban, 6 h, avitinib group, Mean): 538 ng/mL | concentration at 6 h (plasma concentration of rivaroxaban, 6 h, gefitinib group, Mean): 5500 ng/mL | concentration at 6 h (plasma concentration of rivaroxaban, 6 h, gefitinib group, single rats No1-No6): 5830 ng/mL | concentration at 8 h (plasma concentration of rivaroxaban, 8 h, avitinib group, Mean): 448 ng/mL | concentration at 8 h (plasma concentration of rivaroxaban, 8 h, gefitinib group, Mean): 3710 ng/mL | concentration at 8 h (plasma concentration of rivaroxaban, 8 h, gefitinib group, single rats No1-No6): 4960 ng/mL | concentration at 12 h (plasma concentration of rivaroxaban, 12 h, avitinib group, Mean): 80.9 ng/mL | concentration at 12 h (plasma concentration of rivaroxaban, 12 h, gefitinib group, Mean): 1640 ng/mL | concentration at 24 h (rivaroxaban ng/ml mean, 吉非替尼 (gefitinib) group, mean (four rats), time 24): 144 ng/mL | concentration at 5 min (rivaroxaban ng/ml mean, 吉非替尼 (gefitinib) group, mean of rats 7-12, time 0.0833): 626 ng/mL | concentration at 0.25 h (rivaroxaban ng/ml mean, 吉非替尼 (gefitinib) group, mean of rats 7-12, time 0.25): 1740 ng/mL | concentration at 0.5 h (rivaroxaban ng/ml mean, 吉非替尼 (gefitinib) group, mean of rats 7-12, time 0.5): 3670 ng/mL | concentration at 1 h (rivaroxaban ng/ml mean, 吉非替尼 (gefitinib) group, mean of rats 7-12, time 1): 5580 ng/mL | concentration at 2 h (rivaroxaban ng/ml mean, 吉非替尼 (gefitinib) group, mean of rats 7-12, time 2): 7180 ng/mL | concentration at 3 h (rivaroxaban ng/ml mean, 吉非替尼 (gefitinib) group, mean of rats 7-12, time 3): 7690 ng/mL | concentration at 4 h (rivaroxaban ng/ml mean, 吉非替尼 (gefitinib) group, mean of rats 7-12, time 4): 7800 ng/mL | concentration at 6 h (rivaroxaban ng/ml mean, 吉非替尼 (gefitinib) group, mean of rats 7-12, time 6): 5500 ng/mL | concentration at 8 h (rivaroxaban ng/ml mean, 吉非替尼 (gefitinib) group, mean of rats 7-12, time 8): 3710 ng/mL
